Reference: article PMC12371494, “Discovery of YTHDF2 Ligands by Fragment-Based Design” (ACS Bio & Med Chem Au, 2025)
Where two headings read alike, the source gives them in different places.

Target: T1, GST-YTHDF2 (Homo sapiens, UniProt Q9Y5A9)
T1 construct: made in house
T1 sequence (Q9Y5A9 1-579): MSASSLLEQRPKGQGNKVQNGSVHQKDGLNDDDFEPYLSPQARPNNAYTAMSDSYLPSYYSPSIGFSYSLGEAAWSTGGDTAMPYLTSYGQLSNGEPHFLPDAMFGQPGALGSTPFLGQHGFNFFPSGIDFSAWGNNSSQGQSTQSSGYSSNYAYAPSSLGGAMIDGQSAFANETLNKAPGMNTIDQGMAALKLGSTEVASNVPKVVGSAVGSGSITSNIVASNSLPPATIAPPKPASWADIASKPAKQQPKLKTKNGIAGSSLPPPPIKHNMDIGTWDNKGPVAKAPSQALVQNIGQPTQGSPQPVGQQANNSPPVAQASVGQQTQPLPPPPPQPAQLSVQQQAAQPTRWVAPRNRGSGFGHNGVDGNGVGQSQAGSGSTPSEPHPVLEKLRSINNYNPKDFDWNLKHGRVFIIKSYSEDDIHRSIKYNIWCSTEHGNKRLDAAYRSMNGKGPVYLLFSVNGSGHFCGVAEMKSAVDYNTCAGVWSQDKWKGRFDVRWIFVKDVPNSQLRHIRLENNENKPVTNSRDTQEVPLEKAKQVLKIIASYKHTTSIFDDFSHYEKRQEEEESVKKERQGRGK
Assay: HTRF-based binding assay, competition with m6A-oligoRNA, DF2
Settings: for Residual signal at 1 mM concentration / % at 100 µM: HTRF; for Residual signal at 1 mM concentration: 1 mM compound, relative to control, average of two technical replicates, * = interference with the assay; for LE (ligand efficiency, DF2): LE = -RT ln IC50/HAC from HTRF IC50; for % at 100 µM: 100 µM compound

[1] = dose-response, competitor m6A-oligoRNA, read-out: DF2 IC50 (HTRF assay)

SMILES: CC(=O)Nc1nnc(C=Cc2cccc([N+](=O)[O-])c2)s1 (mixture of isomers) [Compound S17]
- Residual signal at 1 mM concentration: 77%

SMILES: CC=CC=C1C(=O)NC(=S)NC1=O [Compound 1]
- IC50: 19 µM
- Residual signal at 1 mM concentration: 26%
- LE (ligand efficiency, DF2): 0.50 kcal/(mol HAC)

SMILES: Cc1ccccc1NN=C1C(=O)NC(=S)NC1=O [Compound 2]
- IC50: 170 µM
- Residual signal at 1 mM concentration: 12%
- LE (ligand efficiency, DF2): 0.29 kcal/(mol HAC)

SMILES: CNc1cc(=O)[nH]c(=O)[nH]1 [Compound 4]
- Residual signal at 1 mM concentration: 18%
- LE (ligand efficiency, DF2): 0.49 kcal/(mol HAC)
- IC50 [1]: 250 µM

SMILES: CNc1ncccc1C(N)=O [Compound 5]
- Residual signal at 1 mM concentration: 88%

SMILES: Cc1[nH]nc2ncnc(N)c12 [Compound 6]
- Residual signal at 1 mM concentration: 80%

SMILES: CN(C)c1ccc(C=C2C(=O)NC(=S)NC2=O)cc1 [Compound 7]
- IC50: 21 µM
- LE (ligand efficiency, DF2): 0.34 kcal/(mol HAC)

SMILES: O=C1NC(=S)NC(=O)C1=NNc1cccc(C(=O)O)c1 [Compound 8]
- IC50: 6 µM
- Residual signal at 1 mM concentration: 5%
- LE (ligand efficiency, DF2): 0.36 kcal/(mol HAC)

SMILES: Cc1cccc(NC=C2C(=O)NC(=S)NC2=O)n1 [Compound 9]
- IC50: 30 µM
- LE (ligand efficiency, DF2): 0.34 kcal/(mol HAC)

SMILES: COc1ccc(C=C2C(=O)NC(=S)NC2=O)cc1C [Compound 10]
- IC50: 28 µM
- Residual signal at 1 mM concentration: 48%
- LE (ligand efficiency, DF2): 0.33 kcal/(mol HAC)

SMILES: CC=CC=C1C(=O)NC(=O)NC1=O [Compound 11]
- IC50: 29 µM
- Residual signal at 1 mM concentration: 30%
- LE (ligand efficiency, DF2): 0.48 kcal/(mol HAC)

SMILES: COc1ccc(NC=C2C(=O)NC(=O)NC2=O)cc1 [Compound 12]
- IC50: 40 µM
- LE (ligand efficiency, DF2): 0.32 kcal/(mol HAC)

SMILES: O=c1cn[nH]c(=S)[nH]1 [Compound 13]
- Residual signal at 1 mM concentration: 5%
- LE (ligand efficiency, DF2): 0.73 kcal/(mol HAC)
- IC50 [1]: 53 µM

SMILES: O=c1[nH]c(=S)[nH]c2n[nH]cc12 [Compound 15]
- Residual signal at 1 mM concentration: 17%
- LE (ligand efficiency, DF2): 0.51 kcal/(mol HAC)
- IC50 [1]: 86 µM

SMILES: O=c1[nH]c(=S)[nH]c2nc[nH]c12 [Compound 16]
- Residual signal at 1 mM concentration: 2%
- LE (ligand efficiency, DF2): 0.56 kcal/(mol HAC)
- IC50 [1]: 30 µM

SMILES: Cc1cc(=O)c(OCc2ccc(F)cc2)c[nH]1 [Compound S1]
- Residual signal at 1 mM concentration: 31%
- IC50 [1]: 310 µM

SMILES: Cc1cc(O)c(OCC(=O)N=c2[nH]cc(C)s2)cn1 [Compound S6]
- Residual signal at 1 mM concentration: 60%

SMILES: CCSc1nnc(NC(C)=O)s1 [Compound S7]
- Residual signal at 1 mM concentration: 60%

SMILES: Cc1nc(O)c(C=Nc2ccc(Cl)cc2)c(O)n1 [Compound S8]
- Residual signal at 1 mM concentration: 21%

SMILES: CC(=O)N=c1[nH]nc(SCC(=O)NC2CCCCC2)s1 [Compound S10]
- Residual signal at 1 mM concentration: 50%

SMILES: COc1cc2[nH]c(=O)[nH]c(=O)c2cc1OC [Compound S12]
- Residual signal at 1 mM concentration: 60%

SMILES: Cc1cc(O)c2[nH]ncc2n1 [Compound S13]
- Residual signal at 1 mM concentration: 62%

SMILES: COC(=O)CNC(=O)COc1c[nH]c(C)cc1=O [Compound S15]
- Residual signal at 1 mM concentration: 75%

SMILES: C=CCc1cccc(C=Nc2c[nH]c(=O)[nH]c2=O)c1O [Compound S18]
- Residual signal at 1 mM concentration: 79%

SMILES: CN(C)c1cc(=O)[nH]c(=O)[nH]1 [Compound S19]
- Residual signal at 1 mM concentration: 85%

SMILES: O=C(Nc1nccs1)C(F)(F)F [Compound S20]
- Residual signal at 1 mM concentration: 87%

SMILES: Oc1ccnc(OC(F)F)c1 [Compound S21]
- Residual signal at 1 mM concentration: 87%

SMILES: Cc1cc(=O)c2sccc2[nH]1 [Compound S22]
- Residual signal at 1 mM concentration: 89%

SMILES: OCCNc1ccc(Cl)nn1 [Compound S23]
- Residual signal at 1 mM concentration: > 90%

SMILES: O=C(Nc1nnc[nH]1)C1CC1 [Compound S24]
- Residual signal at 1 mM concentration: > 90%

SMILES: CC(O)c1nc2cc(-c3cc(F)cc(Cl)c3)ccc2[nH]1 (stereo not shown) [Compound S25]
- Residual signal at 1 mM concentration: > 90%

SMILES: CCCc1nnc(NC(C)=O)s1 [Compound S26]
- Residual signal at 1 mM concentration: > 90%

SMILES: Cc1nc(O)c2sccc2n1 [Compound S27]
- Residual signal at 1 mM concentration: > 90%

SMILES: CCOC(=O)c1noc(C)n1 [Compound S28]
- Residual signal at 1 mM concentration: > 90%

SMILES: COc1cnc(Br)cc1O [Compound S29]
- Residual signal at 1 mM concentration: > 90%

SMILES: COc1cccc(-c2ccc3c(N)n[nH]c3n2)c1 [Compound S30]
- Residual signal at 1 mM concentration: > 90%

SMILES: FC(F)(F)c1cc(-c2ccc3ccccc3c2)n[nH]1 [Compound S31]
- Residual signal at 1 mM concentration: > 90%

SMILES: Cc1nnc(N)n(N)c1=O [Compound S32]
- Residual signal at 1 mM concentration: > 90%

SMILES: O=c1cc(O)cc(C(F)(F)F)[nH]1 [Compound S33]
- Residual signal at 1 mM concentration: > 90%

SMILES: CCc1cc(NC(=O)c2ccc(C)nc2)[nH]n1 [Compound S34]
- Residual signal at 1 mM concentration: > 90%

SMILES: Cc1n[nH]c(N)c1C#N [Compound S36]
- Residual signal at 1 mM concentration: > 90%

SMILES: N#Cc1c(C2CC2)n[nH]c1N [Compound S37]
- Residual signal at 1 mM concentration: > 90%

SMILES: NC(=O)c1cccnc1NCC1CC1 [Compound S39]
- Residual signal at 1 mM concentration: > 90%

SMILES: NCCC1C(=O)NC(=S)NC1=O [Compound S42]
- IC50 [1]: 330 µM

SMILES: CC1(C)C(=O)NC(=S)NC1=O [Compound S43]
- Residual signal at 1 mM concentration: 11%

SMILES: O=C1CC(=O)NC(=S)N1 [Compound S44]
- Residual signal at 1 mM concentration: 79%

SMILES: CN1C(=O)CC(=O)NC1=S [Compound S45]
- Residual signal at 1 mM concentration: 75%

SMILES: Cn1cccc1C=C1C(=O)NC(=S)NC1=O [Compound S46]
- Residual signal at 1 mM concentration: 13%

SMILES: CNC=C1C(=O)NC(=S)NC1=O [Compound S47]
- IC50 [1]: 91 µM

SMILES: CN(NC=C1C(=O)NC(=S)NC1=O)c1ccccc1 [Compound S49]
- Residual signal at 1 mM concentration: 54%

SMILES: Cc1cc(O)nc(NC=C2C(=O)NC(=S)NC2=O)n1 [Compound S50]
- Residual signal at 1 mM concentration: 9%
- IC50 [1]: 57 µM

SMILES: CN(C)c1ccc(C=C2C(=O)NC(=S)NC2=O)o1 [Compound S51]
- Residual signal at 1 mM concentration: 35%

SMILES: CCOc1ccc(C=C2C(=O)NC(=S)NC2=O)cc1Cl [Compound S52]
- Residual signal at 1 mM concentration: 12%
- LE (ligand efficiency, DF2): 0.29 kcal/(mol HAC)
- IC50 [1]: 55 µM

SMILES: Cc1n[nH]c(=S)[nH]c1=O [Compound S53]
- Residual signal at 1 mM concentration: 38%

SMILES: O=C(CCc1n[nH]c(=S)[nH]c1=O)Nc1ccccc1 [Compound S55]
- IC50 [1]: 190 µM

SMILES: CCNc1cc(=O)[nH]c(=O)[nH]1 [Compound S56]
- Residual signal at 1 mM concentration: 51%

SMILES: CNc1ncnc2[nH]nc(C)c12 [Compound S57]
- Residual signal at 1 mM concentration: 88%

SMILES: O=c1[nH]c(=O)c2cn[nH]c2[nH]1 [Compound S58]
- Residual signal at 1 mM concentration: 47%

SMILES: O=c1[nH]c(=S)[nH]c2sc3c(c12)CCC3 [Compound S59]
- Residual signal at 1 mM concentration: 35%
- IC50 [1]: 53 µM

SMILES: CC1CCc2c(sc3[nH]c(=S)[nH]c(=O)c23)C1 (stereo not shown) [Compound S60]
- Residual signal at 1 mM concentration: 24%
- IC50 [1]: 80 µM

SMILES: O=c1[nH]c(=O)c2ccsc2[nH]1 [Compound S61]
- IC50 [1]: 290 µM

SMILES: O=c1[nH]c(=S)[nH]c2cnccc12 [Compound S62]
- IC50 [1]: 170 µM

SMILES: O=c1[nH]c(=S)[nH]c2[nH]ccc12 [Compound S63]
- % at 100 µM: 49%
- Residual signal at 1 mM concentration: 28%

SMILES: O=c1[nH]c(=S)[nH]c2ccsc12 [Compound S64]
- % at 100 µM: 36%

SMILES: CCc1cc2c(=O)[nH]c(SC)nc2s1 [Compound S65]
- % at 100 µM: 68%

SMILES: Cc1cc2c(=O)n(C3CC3)c(=S)[nH]c2s1 [Compound S66]
- % at 100 µM: 25%
- Residual signal at 1 mM concentration: 23%

SMILES: Nn1c(=S)[nH]c2sccc2c1=O [Compound S67]
- % at 100 µM: 40%
- Residual signal at 1 mM concentration: 23%
